Assay results: paper PMC13088243, “Quantifying Protein Homodimer Affinities and the Effect of Molecular Glues and Interface Residues Using Native Mass Spectrometry” (Journal of the American Chemical Society, 2026)
“And” between values parts separate entries of the source, which are not always exact repeats. Equal values may be shown once. Read-outs that look alike come from different tables or passages of the source.

T1: Tpx WT (Trypanosoma brucei brucei, UniProt O77404)
T1 sequence (O77404 1-144): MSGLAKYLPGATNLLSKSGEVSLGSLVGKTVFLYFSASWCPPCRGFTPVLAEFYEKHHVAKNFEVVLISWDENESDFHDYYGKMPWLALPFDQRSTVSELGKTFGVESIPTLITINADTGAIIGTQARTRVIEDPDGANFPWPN

B1: Tryparedoxin (protein)
chain: T1 sequence (O77404 1-144)
modifications: ortho-CFT covalently bound to C40
B2: Tryparedoxin (protein)
chain: T1 sequence (O77404 1-144)
modifications: CPT covalently bound to C40
B3: Tryparedoxin (protein)
chain: T1 sequence (O77404 1-144)
modifications: meta-CFT covalently bound to C40
B4: Tryparedoxin (protein)
chain: T1 sequence (O77404 1-144)
B5: Tryparedoxin (protein)
chain: T1 sequence (O77404 1-144)
modifications: para-CFT covalently bound to C40
B6: Tryparedoxin (protein)
chain: T1 sequence (O77404 1-144)
modifications: CtFT covalently bound to C40

Legend:
Tpx WT [1] = biological target: T1, Tpx WT; experiment: biochemical; format: binding; conditions: for rD,LILBID @ 1100 µm / rD,solution: Tpx WT with or without molecular glue; for rD,LILBID @ 1100 µm: from linear fits of dissociation plots; for rD,solution: from rD,LILBID with calibration factor f1100
Tpx WT [2] = biological target: T1, Tpx WT; set-up: method as in Schwegler et al., bioRxiv 2025; conditions: Tpx WT with molecular glue; previous dilution ITC; ref Schwegler et al., bioRxiv 2025; read-out: K D,ITC of Tpx homodimer; cited from earlier work
Tpx K102E [3] = biological target: T2, Tpx K102E (Trypanosoma brucei brucei, UniProt O77404, K102E); experiment: biochemical; format: binding
Tpx K102E [4] = biological target: T2, Tpx K102E; set-up: method as in Schwegler et al., bioRxiv 2025; conditions: Tpx K102E with molecular glue; previous dilution ITC; ref Schwegler et al., bioRxiv 2025; read-out: K D,ITC of Tpx homodimer; cited from earlier work
Tpx K102A = Tpx K102A (Trypanosoma brucei brucei, UniProt O77404, K102A); experiment: biochemical; format: binding
Tpx W39A = Tpx W39A (Trypanosoma brucei brucei, UniProt O77404, W39A); experiment: biochemical; format: binding
BSA (Bos taurus) = BSA (Bos taurus) (UniProt P02769); conditions: cited from earlier work
Tryparedoxin = biological target: B4; experiment: qLILBID-MS
qLILBID-MS = biological target: the molecule itself; experiment: qLILBID-MS

T2 sequence (O77404 whole entry K102E): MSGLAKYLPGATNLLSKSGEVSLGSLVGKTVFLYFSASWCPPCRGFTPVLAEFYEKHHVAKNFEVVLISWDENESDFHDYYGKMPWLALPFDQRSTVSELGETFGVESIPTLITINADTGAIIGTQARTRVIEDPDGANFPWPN
Sequence of Tpx K102A (O77404 whole entry K102A): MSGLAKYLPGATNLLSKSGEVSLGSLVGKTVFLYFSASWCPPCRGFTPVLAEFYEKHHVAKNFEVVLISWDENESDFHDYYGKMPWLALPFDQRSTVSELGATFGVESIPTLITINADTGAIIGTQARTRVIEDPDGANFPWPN
Sequence of Tpx W39A (O77404 whole entry W39A): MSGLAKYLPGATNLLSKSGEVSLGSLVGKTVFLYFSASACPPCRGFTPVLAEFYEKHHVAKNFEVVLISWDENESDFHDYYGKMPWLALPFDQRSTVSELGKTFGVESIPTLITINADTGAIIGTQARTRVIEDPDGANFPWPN

Row | Molecule | Kd (Tpx WT [1]) [µM] | rD,LILBID @ 1100 µm (Tpx WT [1]) | rD,solution (Tpx WT [1]) | Kd (Tpx WT [2]) [µM] | Kd (Tryparedoxin) [µM] | other results
1 | O=c1[nH]c(CCl)nc2scc(-c3ccccc3)c12 [CPT] | 16 ± 9 | 0.871 ± 0.033 | 0.568 ± 0.088 | 6 ± 2.2 |  | 
2 | O=c1[nH]c(CCl)nc2scc(-c3ccc(C(F)(F)F)cc3)c12 [CtFT] | 360 ± 110 | 0.983 ± 0.004 | 0.932 ± 0.017 | 410 ± 56 |  | 
3 | O=c1[nH]c(CCl)nc2scc(-c3cccc(F)c3)c12 [meta-CFT] | 6 ± 5 | 0.809 ± 0.058 | 0.420 ± 0.124 | 3.7 ± 1.5 |  | 
4 | O=c1[nH]c(CCl)nc2scc(-c3ccccc3F)c12 [ortho-CFT] |  | 0.897 ± 0.024 | 0.642 ± 0.072 | 32 ± 7 |  | 
5 | O=c1[nH]c(CCl)nc2scc(-c3ccc(F)cc3)c12 [para-CFT, 2-(chloromethyl)-5-(4-fluorophenyl)thieno[2,3-d]pyrimidin-4(3H)-one] | 5 ± 4 | 0.798 ± 0.048 | 0.398 ± 0.099 | 5.3 ± 1.9 |  | Kd (Tpx K102E [3]): 70 ± 16 µM; rD,LILBID @ 1100 µm (Tpx K102E [3]; Tpx K102E with or without para-CFT): 0.942 ± 0.008; rD,solution (Tpx K102E [3]; Tpx K102E with or without para-CFT, from rD,LILBID with f1100): 0.782 ± 0.029; Kd (Tpx K102E [4]): 83 ± 32 µM; Kd (Tpx K102A; K D,LILBID of Tpx homodimer, Tpx K102A with para-CFT or none, ew 1100 μm, triplicate): 37 µM and 36 µM; rD,LILBID @ 1100 µm (Tpx K102A; Tpx K102A with or without para-CFT): 0.914 ± 0.027; rD,solution (Tpx K102A; Tpx K102A with or without para-CFT, from rD,LILBID with f1100): 0.692 ± 0.084; Kd (Tpx W39A): 300 ± 110 µM; rD,LILBID @ 1100 µm (Tpx W39A; Tpx W39A with or without para-CFT): 0.980 ± 0.006; rD,solution (Tpx W39A; Tpx W39A with or without para-CFT, from rD,LILBID with f1100): 0.921 ± 0.023
6 | BSA (from UniProt P02769) |  |  |  |  |  | Kd (BSA (Bos taurus)): 10 µM
7 | B1 |  |  |  |  | 26 | 
8 | B2 |  |  |  |  | 16 | 
9 | B3 |  |  |  |  | 6 | 
10 | B4 |  |  |  |  |  | Kd (qLILBID-MS): > 500 µM
11 | B5 |  |  |  |  | 5 | 
12 | B6 |  |  |  |  | 360 | 
